This assay concerns the target Protein farnesyltransferase (Sus scrofa). Description: In vitro activity against Protein farnesyltransferase. Particulars: read-out: I50.

The structures appear in SMILES notation.

For the molecule `CC(C)C[C@H](NC(=O)[C@@H](NC(=O)[C@@H](N)CC(=O)N(C)O)C(C)C)C(=O)N[C@@H](CO)C(=O)O`, the IC50 is above 360 µM. `CC(C)C[C@H](NC(=O)[C@@H](NC(=O)[C@H](CC(=O)N(C)O)NC(=O)OC(C)(C)C)C(C)C)C(=O)N[C@@H](CO)C(=O)O`: the IC50 is above 360 µM. Next, `CSCC[C@@H](NC(=O)[C@@H](NC(=O)[C@@H](NC(=O)CC(=O)N(O)C/C=C(\C)CC/C=C(\C)CCC=C(C)C)C(C)C)C(C)C)C(=O)O`: 30.5 µM; `CSCC[C@H](NC(=O)[C@@H](NC(=O)[C@@H](NC(=O)CC(=O)N(O)C/C=C(\C)CC/C=C(\C)CCC=C(C)C)C(C)C)C(C)C)C(=O)O`: 0.33 µM. Turning to `CC(C)C[C@H](NC(=O)[C@@H](NC(=O)[C@H](CC(=O)N(C)OCc1ccccc1)NC(=O)OC(C)(C)C)C(C)C)C(=O)N[C@@H](CO)C(=O)O`, the IC50 was above 360 µM.

Take `CC(C)=CCC/C(C)=C/CC/C(C)=C/CN(O)C(=O)CCC(=O)N[C@H](C(=O)N[C@@H](CC(C)C)C(=O)N[C@@H](CO)C(=O)O)C(C)C`: the IC50 is 42.5 µM.

In the case of `CC(C)C[C@H](NC(=O)[C@@H](NC(=O)[C@@H](N)CC(=O)N(C)OCc1ccccc1)C(C)C)C(=O)N[C@@H](CO)C(=O)O`, the IC50 is above 360 µM.

As for `CSCC[C@H](NC(=O)[C@@H](NC(=O)[C@@H](NC(=O)CC(=O)N(O)CC/C=C(\C)CC/C=C(\C)CCC=C(C)C)C(C)C)C(C)C)C(=O)O`, the IC50 is 5.6 µM.

The record behind these values is ChEMBL document CHEMBL1129446, “Hydroxamic acid-based bisubstrate analog inhibitors of Ras farnesyl protein transferase” (J Med Chem, 1996).
